The values below come from the Kinase Knowledgebase extract (Sharma et al. 2016).

Each structure is given as a SMILES string.

For one experiment, the target named is PIK3CA (human) (UniProt P42336). Briefly: Assessment of PIK3CA Kinase Activity.
A further experiment has as its target PIK3CG (human) (UniProt P48736). Description: Assessment of PIK3CG Kinase Activity.

PIK3CG (human), sequence (P48736 whole entry, looked up): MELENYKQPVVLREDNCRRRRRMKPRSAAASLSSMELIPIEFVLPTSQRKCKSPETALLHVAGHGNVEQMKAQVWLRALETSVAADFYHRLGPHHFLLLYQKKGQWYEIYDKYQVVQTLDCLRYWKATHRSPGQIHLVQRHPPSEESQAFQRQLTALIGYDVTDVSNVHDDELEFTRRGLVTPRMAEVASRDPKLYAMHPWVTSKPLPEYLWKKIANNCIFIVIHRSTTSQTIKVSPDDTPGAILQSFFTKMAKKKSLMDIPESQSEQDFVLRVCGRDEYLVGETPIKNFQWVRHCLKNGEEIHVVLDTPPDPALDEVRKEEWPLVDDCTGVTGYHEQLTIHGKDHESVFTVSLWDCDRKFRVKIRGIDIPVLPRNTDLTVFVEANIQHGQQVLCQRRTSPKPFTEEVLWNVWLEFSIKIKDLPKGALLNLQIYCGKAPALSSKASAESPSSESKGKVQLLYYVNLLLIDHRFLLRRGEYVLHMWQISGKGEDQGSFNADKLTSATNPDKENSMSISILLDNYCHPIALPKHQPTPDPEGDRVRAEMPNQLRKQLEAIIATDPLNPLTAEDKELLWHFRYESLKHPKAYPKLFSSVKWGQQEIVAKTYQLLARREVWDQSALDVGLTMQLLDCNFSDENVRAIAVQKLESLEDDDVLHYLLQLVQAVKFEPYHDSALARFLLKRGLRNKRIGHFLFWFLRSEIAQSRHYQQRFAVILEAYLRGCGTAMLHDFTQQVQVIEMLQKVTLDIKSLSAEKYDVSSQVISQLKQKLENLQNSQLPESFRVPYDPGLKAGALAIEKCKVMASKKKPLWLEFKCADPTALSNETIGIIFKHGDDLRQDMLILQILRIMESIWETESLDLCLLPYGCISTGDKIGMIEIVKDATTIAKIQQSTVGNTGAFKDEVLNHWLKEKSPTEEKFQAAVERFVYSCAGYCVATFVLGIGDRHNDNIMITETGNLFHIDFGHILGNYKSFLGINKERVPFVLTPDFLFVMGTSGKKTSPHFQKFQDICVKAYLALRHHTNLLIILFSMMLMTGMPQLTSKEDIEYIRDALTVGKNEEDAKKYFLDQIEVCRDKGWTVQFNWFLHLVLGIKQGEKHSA
PIK3CA (human), sequence (P42336 whole entry, looked up): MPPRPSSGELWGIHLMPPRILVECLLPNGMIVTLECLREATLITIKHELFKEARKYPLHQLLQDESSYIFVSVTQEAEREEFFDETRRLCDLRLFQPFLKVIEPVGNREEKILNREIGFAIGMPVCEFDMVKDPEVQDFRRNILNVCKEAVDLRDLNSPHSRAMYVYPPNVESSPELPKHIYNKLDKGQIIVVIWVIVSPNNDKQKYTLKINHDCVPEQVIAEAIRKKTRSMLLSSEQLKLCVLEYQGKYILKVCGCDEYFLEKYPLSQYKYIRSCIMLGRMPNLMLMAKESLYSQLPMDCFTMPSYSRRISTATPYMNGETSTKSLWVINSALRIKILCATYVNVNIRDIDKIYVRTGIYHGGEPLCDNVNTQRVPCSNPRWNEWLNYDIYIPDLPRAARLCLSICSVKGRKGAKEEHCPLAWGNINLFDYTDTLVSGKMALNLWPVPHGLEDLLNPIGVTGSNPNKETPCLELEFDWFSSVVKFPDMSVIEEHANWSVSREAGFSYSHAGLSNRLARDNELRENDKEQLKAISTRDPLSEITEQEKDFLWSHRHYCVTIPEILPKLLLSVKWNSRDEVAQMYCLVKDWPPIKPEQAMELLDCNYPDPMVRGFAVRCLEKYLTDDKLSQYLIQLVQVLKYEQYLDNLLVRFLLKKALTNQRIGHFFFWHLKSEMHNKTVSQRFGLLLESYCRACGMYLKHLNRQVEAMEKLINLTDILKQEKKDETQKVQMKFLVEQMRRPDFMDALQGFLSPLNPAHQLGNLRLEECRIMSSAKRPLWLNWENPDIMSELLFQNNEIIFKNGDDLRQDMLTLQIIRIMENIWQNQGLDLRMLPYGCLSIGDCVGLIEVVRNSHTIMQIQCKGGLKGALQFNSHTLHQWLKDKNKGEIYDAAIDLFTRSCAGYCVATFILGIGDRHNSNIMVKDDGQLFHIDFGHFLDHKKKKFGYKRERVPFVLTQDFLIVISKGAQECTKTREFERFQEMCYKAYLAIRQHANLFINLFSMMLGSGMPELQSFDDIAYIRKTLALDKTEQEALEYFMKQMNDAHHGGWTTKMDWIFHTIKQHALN

Take `CS(=O)(=O)N1Cc2nc(-c3ccc(NC(=O)Nc4cccnc4)cc3)nc(N3C4CCC3COC4)c2C1`: the values for the IC50 on PIK3CA (human) and against PIK3CG (human) were 732 nM and > 10000 nM, respectively.

Consider `CN1CCc2c(nc(-c3ccc(NC(=O)Nc4cccnc4)cc3)nc2N2CC3CCC(C2)O3)C1`, for which the IC50 (as a rule, the concentration needed to halve the response being measured) against PIK3CA (human) turned out to be 674 nM; against PIK3CG (human), 9500 nM.

On to `CN(C)C1CCN(C(=O)c2ccc(NC(=O)Nc3ccc(-c4nc5c(c(N6CC7CCC(C6)O7)n4)CNC5)cc3)cc2)CC1`, for which the IC50 at PIK3CA (human) was 110 nM; on PIK3CG (human), > 10000 nM.

For the molecule `CN(C)C1CCN(C(=O)c2ccc(NC(=O)Nc3ccc(-c4nc5c(c(N6C7CCC6COC7)n4)CCNC5)cc3)cc2)CC1`, the IC50 against PIK3CA (human) was 321 nM; against PIK3CG (human), 3720 nM.

With `CN(C)C1CCN(C(=O)c2ccc(NC(=O)Nc3ccc(-c4nc5c(c(N6C7CCC6COC7)n4)CN(S(C)(=O)=O)C5)cc3)cc2)CC1`, the IC50 stood at 67 nM on PIK3CA (human) and 573 nM against PIK3CG (human).

As for `O=C(Nc1ccc(-c2nc3c(c(N4CC5CCC(C4)O5)n2)CNC3)cc1)Nc1cccnc1`, the IC50 on PIK3CA (human) is 59 nM; on PIK3CG (human) it was 1860 nM.

As for `CN1CCc2c(nc(-c3ccc(NC(=O)Nc4cccnc4)cc3)nc2N2C3CCC2COC3)C1`, the IC50 against PIK3CA (human) amounted to 1110 nM; at PIK3CG (human) it was 12000 nM.

As for `CS(=O)(=O)N1CCc2c(nc(-c3ccc(NC(=O)Nc4cccnc4)cc3)nc2N2CC3CCC(C2)O3)C1`, the IC50 at PIK3CA (human) was 107 nM; against PIK3CG (human), 1240 nM.

On to `O=C(Nc1ccc(-c2nc3c(c(N4CC5CCC(C4)O5)n2)CCNC3)cc1)Nc1cccnc1`, for which the results for the IC50 at PIK3CA (human) and on PIK3CG (human) were 776 nM and 14000 nM, respectively.

Regarding `CN(C)C1CCN(C(=O)c2ccc(NC(=O)Nc3ccc(-c4nc5c(c(N6CC7CCC(C6)O7)n4)CCNC5)cc3)cc2)CC1`, the figures for the IC50 on PIK3CA (human) and against PIK3CG (human) were 1120 nM and 3950 nM, respectively.

For `CN(C)C1CCN(C(=O)c2ccc(NC(=O)Nc3ccc(-c4nc5c(c(N6C7CCC6COC7)n4)CNC5)cc3)cc2)CC1`, the IC50 was 301 nM against PIK3CA (human) and > 10000 nM at PIK3CG (human).

Take `CN(C)C1CCN(C(=O)c2ccc(NC(=O)Nc3ccc(-c4nc5c(c(N6CCOCC6)n4)CCN(S(C)(=O)=O)C5)cc3)cc2)CC1`: the IC50 came to 315 nM at PIK3CA (human) and 3110 nM at PIK3CG (human).

Turning to `CNC(=O)Nc1ccc(-c2nc3c(c(N4CC5CCC(C4)O5)n2)CN(S(C)(=O)=O)C3)cc1`, the IC50 against PIK3CA (human) was determined as 6 nM; against PIK3CG (human), 116 nM.

On to `O=C(Nc1ccc(-c2nc3c(c(N4C5CCC4COC5)n2)CNC3)cc1)Nc1cccnc1`, for which the IC50 stood at 25 nM on PIK3CA (human) and 841 nM on PIK3CG (human).

Consider `CNC(=O)Nc1ccc(-c2nc3c(c(N4C5CCC4COC5)n2)CCN(C)C3)cc1`, for which the results for the IC50 at PIK3CA (human) and against PIK3CG (human) were 4410 nM and > 10000 nM, respectively.

In the case of `CNC(=O)Nc1ccc(-c2nc3c(c(N4CCOCC4)n2)CNC3)cc1`, the IC50 at PIK3CA (human) turned out to be 5 nM; against PIK3CG (human), 67 nM.

Regarding `CS(=O)(=O)N1CCc2c(nc(-c3ccc(NC(=O)Nc4cccnc4)cc3)nc2N2CCOCC2)C1`, the IC50 at PIK3CA (human) was determined as 3.5 nM; against PIK3CG (human), 44 nM.

On to `CN(C)C1CCN(C(=O)c2ccc(NC(=O)Nc3ccc(-c4nc5c(c(N6CCOCC6)n4)CN(S(C)(=O)=O)C5)cc3)cc2)CC1`, for which the IC50 came out at 1 nM against PIK3CA (human) and 8 nM against PIK3CG (human).

Consider `CN(C)C1CCN(C(=O)c2ccc(NC(=O)Nc3ccc(-c4nc5c(c(N6CCOCC6)n4)CCNC5)cc3)cc2)CC1`, for which the IC50 at PIK3CA (human) turned out to be 31 nM; at PIK3CG (human), 224 nM.

As for `CN1CCc2c(nc(-c3ccc(NC(=O)Nc4cccnc4)cc3)nc2N2CCOCC2)C1`, the IC50 was determined as 111 nM against PIK3CA (human) and 1370 nM at PIK3CG (human).

On to `CNC(=O)Nc1ccc(-c2nc3c(c(N4C5CCC4COC5)n2)CCN(S(C)(=O)=O)C3)cc1`, for which the IC50 at PIK3CA (human) was 582 nM; against PIK3CG (human), > 10000 nM.
